We go through 2 compounds from ChEMBL document CHEMBL1154521, “2,3-Dihydrowithaferin A-3beta-O-sulfate, a new potential prodrug of withaferin A from aeroponically grown Withania somnifera” (2009).

In general, GI50 refers to the concentration at which growth is held to half of that of the control. Read a high GI50 as lower sensitivity of the cells.

Experiment [1] can be described thus: Growth inhibition of human NCI60 cells. The class given is functional.
In experiment [2] the test system is MCF7. In words: Cytotoxicity against human MCF7 cells by MTT assay. Type of experiment: functional. A general note: Tetrazolium assays rely on reduction of a dye to a coloured formazan, in cell work by metabolically active cells.
The test system of experiment [3] is MCF7. In words: Cytotoxicity against human MCF7 cells after 72 hrs by MTT assay. The class given is functional, cell-based.
Experiment [4] deals with WI-38. Kind of experiment: Induction of F-actin aggregation in human WI38 cells after 4 hrs. Type of experiment: functional, cell-based.
Experiment [5] deals with T1, Heat shock factor protein 1 (Mus musculus) (UniProt P38532).
T1 sequence (whole entry): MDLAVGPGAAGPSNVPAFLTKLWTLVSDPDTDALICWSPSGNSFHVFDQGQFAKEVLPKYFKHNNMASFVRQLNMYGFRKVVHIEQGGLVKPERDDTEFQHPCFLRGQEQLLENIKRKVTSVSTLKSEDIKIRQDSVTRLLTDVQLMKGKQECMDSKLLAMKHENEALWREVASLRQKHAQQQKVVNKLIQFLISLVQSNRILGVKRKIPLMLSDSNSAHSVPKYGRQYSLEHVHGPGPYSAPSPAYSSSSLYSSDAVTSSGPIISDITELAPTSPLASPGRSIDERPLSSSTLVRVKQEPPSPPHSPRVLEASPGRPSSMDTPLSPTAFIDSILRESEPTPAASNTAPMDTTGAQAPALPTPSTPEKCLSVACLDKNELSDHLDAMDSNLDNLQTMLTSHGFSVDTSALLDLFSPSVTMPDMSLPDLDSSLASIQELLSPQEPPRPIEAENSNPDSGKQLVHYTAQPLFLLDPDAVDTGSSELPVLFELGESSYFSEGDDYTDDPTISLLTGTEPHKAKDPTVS
In words: Induction of HSF1-mediated heat-shock protein 72 expression in mouse fibroblast with plasmid EGFP at 2 uM after overnight incubation by micro plate fluorometer.

In experiment [6] the test system is WI-38. In words: Induction of F-actin aggregation in human WI38 cells after 24 hrs. Type of experiment: functional, cell-based.

The source made the active and inactive calls. The rule behind the calls is not given here.

In turn, `CC1=C(CO)C(=O)O[C@@H]([C@@H](C)[C@H]2CC[C@H]3[C@@H]4C[C@H]5O[C@]56[C@@H](O)C=CC(=O)[C@]6(C)[C@H]4CC[C@]23C)C1` [WITHAFERIN A] came in with a GI50 in experiment [1] of 620 nM. Also, the “inhibition (INH)” value in the experiment with MCF7 [2] came out at 50%. For the same compound, the result (with MCF7 [3]; in the experiment with WI-38 [4]; in experiment [5]) was Active.
Consider `CC1=C(CO)C(=O)O[C@@H]([C@@H](C)[C@H]2CC[C@H]3[C@@H]4C[C@H]5O[C@]56[C@@H](O)[C@@H](OS(=O)(=O)O)CC(=O)[C@]6(C)[C@H]4CC[C@]23C)C1`, for which the outcome with WI-38 [6] was inactive.
